Experimental findings from patent EP4467141A1, “PYRAZOLO-QUINOLINES AS SELECTIVE INHIBITORS OF GENOTOXIC STRESS-INDUCED IKK/NF- KB PATHWAYS FOR CANCER THERAPY” (Max-Delbrück-Centrum für Molekulare Medizin in der …, priority 2023, dated 2024) are described below.

Holding throughout (experiment): Kinase panel study
Format in all cases: biochemical
What all share (settings): read-out: Percentage of inhibition; for inhibition at 1 µM: 1000nM; for inhibition at 10 µM: 10000nM

Experiment [1] concerns the target T1, AURKA (Aurora A) (Homo sapiens, UniProt O14965).
T1 construct: purchased Thermo Fisher Scientific
T1 sequence (O14965 1-403): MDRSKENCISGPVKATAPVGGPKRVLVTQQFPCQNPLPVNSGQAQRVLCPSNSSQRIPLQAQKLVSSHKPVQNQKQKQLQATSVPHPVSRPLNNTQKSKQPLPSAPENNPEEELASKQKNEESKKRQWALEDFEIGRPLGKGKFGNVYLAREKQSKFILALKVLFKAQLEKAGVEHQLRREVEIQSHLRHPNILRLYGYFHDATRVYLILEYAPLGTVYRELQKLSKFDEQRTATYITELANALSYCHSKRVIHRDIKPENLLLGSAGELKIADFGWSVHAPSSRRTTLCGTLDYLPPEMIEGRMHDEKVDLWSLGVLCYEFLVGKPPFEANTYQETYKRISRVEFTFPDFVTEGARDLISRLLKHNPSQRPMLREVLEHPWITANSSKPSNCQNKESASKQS
The gist of the method: (§1)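 Percent inhibition of each kinase by the test compound, given at either 1 µM or 10 µM, came from a contracted panel run by ZLyte or Adapta protocol.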

The target in experiment [2] is T2, EPHB4 (Homo sapiens, UniProt P54760).
T2 construct: purchased Thermo Fisher Scientific
T2 sequence (P54760 16-987): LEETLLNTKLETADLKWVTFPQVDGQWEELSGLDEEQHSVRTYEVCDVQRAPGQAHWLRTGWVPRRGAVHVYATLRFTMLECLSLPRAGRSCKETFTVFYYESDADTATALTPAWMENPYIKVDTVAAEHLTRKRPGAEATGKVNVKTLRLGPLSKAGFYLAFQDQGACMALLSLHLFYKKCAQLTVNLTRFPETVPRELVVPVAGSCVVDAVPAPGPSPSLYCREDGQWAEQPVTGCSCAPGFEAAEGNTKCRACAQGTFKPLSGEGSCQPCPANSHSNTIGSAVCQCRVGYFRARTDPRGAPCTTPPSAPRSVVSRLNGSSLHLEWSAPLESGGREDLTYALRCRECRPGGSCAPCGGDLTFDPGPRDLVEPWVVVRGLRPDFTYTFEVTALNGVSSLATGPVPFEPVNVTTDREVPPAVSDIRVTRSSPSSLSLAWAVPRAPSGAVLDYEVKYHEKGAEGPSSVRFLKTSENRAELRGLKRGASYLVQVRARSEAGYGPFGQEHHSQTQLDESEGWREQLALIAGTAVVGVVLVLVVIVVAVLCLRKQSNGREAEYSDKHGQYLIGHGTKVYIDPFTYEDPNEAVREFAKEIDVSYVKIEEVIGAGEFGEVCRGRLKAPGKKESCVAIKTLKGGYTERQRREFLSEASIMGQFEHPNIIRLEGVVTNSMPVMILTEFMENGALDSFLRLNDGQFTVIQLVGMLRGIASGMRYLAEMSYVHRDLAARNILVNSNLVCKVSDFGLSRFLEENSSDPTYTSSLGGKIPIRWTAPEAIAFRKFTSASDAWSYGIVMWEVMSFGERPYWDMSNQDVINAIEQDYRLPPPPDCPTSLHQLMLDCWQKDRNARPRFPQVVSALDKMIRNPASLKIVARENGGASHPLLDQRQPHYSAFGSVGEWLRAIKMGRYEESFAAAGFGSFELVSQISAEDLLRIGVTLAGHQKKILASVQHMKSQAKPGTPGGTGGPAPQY
The gist of the method:
as §1

Experiment [3] concerns the target T3, SGKL (SGK3) (Homo sapiens, UniProt Q96BR1).
T3 construct: purchased Thermo Fisher Scientific
T3 sequence (Q96BR1 1-496): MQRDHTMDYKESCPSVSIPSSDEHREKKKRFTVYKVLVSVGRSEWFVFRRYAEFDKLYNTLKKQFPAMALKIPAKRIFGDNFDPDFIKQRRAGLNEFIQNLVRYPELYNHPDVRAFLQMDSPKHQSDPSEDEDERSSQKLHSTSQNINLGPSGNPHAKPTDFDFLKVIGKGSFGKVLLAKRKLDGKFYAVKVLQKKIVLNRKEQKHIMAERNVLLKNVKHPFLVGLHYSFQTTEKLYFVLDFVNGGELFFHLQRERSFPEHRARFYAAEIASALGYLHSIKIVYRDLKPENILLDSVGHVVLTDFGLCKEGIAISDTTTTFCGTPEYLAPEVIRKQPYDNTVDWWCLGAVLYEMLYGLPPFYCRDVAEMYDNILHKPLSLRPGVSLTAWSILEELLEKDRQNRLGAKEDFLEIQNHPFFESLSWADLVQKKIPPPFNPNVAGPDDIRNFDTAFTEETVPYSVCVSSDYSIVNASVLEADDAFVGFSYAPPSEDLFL
The gist of the method: as §1

Experiment [4] addresses T4, SRPK2 (Homo sapiens, UniProt P78362).
T4 construct: purchased Thermo Fisher Scientific
The gist of the method:
as §1

The target of experiment [5] is T5, LRRK2 I2020T (Homo sapiens, UniProt Q5S007, I2020T).
T5 construct: purchased Thermo Fisher Scientific
The method, boiled down:
as §1

T4 sequence (P78362 whole entry): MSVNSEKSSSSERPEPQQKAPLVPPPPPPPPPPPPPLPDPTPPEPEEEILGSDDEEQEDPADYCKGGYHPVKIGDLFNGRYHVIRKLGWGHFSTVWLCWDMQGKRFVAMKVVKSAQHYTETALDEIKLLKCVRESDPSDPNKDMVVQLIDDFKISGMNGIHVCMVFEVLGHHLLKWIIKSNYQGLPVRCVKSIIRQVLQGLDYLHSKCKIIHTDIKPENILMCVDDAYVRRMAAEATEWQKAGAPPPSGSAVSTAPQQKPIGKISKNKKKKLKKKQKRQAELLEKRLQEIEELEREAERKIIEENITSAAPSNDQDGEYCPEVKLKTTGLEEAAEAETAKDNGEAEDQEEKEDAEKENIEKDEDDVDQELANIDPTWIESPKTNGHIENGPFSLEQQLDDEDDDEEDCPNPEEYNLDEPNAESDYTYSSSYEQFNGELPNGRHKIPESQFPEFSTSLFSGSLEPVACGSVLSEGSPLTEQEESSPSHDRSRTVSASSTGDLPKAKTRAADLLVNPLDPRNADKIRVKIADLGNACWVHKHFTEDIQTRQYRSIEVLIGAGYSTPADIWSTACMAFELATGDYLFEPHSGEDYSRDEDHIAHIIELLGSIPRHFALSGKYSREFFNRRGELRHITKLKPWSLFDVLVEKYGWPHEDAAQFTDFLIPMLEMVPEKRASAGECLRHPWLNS
T5 sequence (Q5S007 970-2527 I2020T limits assumed): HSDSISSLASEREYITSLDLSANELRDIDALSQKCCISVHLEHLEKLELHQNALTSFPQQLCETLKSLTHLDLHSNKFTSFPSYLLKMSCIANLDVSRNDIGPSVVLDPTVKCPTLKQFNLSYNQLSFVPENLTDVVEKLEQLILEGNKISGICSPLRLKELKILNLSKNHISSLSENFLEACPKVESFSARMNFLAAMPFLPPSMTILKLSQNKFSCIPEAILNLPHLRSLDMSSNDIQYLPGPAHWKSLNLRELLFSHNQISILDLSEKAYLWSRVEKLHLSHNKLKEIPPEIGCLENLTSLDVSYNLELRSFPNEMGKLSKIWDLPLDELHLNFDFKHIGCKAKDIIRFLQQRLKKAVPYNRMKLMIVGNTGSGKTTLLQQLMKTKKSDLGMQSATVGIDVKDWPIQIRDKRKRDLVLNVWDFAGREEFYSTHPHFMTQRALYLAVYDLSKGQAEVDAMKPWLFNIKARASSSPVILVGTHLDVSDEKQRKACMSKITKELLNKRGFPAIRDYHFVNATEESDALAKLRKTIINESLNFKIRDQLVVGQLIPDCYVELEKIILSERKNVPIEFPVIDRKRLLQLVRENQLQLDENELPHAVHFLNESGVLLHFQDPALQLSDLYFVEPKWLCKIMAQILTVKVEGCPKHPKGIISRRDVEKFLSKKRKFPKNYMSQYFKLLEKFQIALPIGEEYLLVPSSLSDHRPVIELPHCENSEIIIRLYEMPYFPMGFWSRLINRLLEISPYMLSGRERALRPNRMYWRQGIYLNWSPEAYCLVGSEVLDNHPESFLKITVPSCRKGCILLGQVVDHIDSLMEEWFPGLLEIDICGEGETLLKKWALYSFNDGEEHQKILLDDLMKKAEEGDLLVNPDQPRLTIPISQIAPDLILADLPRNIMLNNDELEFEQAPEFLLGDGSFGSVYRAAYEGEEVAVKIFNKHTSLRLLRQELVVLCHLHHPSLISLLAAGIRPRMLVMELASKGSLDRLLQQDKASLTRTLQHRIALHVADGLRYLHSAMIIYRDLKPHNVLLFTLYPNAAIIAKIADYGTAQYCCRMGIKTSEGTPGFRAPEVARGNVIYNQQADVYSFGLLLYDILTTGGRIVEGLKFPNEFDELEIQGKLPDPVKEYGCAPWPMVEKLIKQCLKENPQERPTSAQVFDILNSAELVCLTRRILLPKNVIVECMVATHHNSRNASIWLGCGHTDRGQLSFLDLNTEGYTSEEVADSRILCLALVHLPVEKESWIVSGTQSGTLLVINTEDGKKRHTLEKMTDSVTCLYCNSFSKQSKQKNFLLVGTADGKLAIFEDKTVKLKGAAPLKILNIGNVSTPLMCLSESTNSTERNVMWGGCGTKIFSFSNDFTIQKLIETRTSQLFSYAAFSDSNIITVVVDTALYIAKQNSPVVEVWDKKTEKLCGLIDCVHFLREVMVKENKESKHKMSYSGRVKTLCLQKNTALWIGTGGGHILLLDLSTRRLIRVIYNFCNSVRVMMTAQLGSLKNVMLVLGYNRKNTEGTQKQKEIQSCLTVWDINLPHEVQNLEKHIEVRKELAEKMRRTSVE

With `COc1ccc2c(c1OC)c(=O)n1c3ccc(O)cc3c3ccnc2c31` [MW01, 5-Hydroxy-10,11-dimethoxy-9H-benzo[c]indolo[3,2,1-ij][1,5]naphthyridin-9-one], the inhibition (in general, the relative decrease from the control value, in per cent) at 1 µM in experiment [1] was 8%; in experiment [2], 5%; in experiment [3] it was 12%; in experiment [4] it was -2%; in experiment [5], 83%. Moreover, the inhibition at 10 µM in experiment [1] came to 18%; in experiment [2], 7%; in experiment [3], 10%; in experiment [4], 0%; in experiment [5] it was 90%.
Take `COc1ccc2cc3c(N)nn(C(=O)c4cccc(N(C)C)c4)c3nc2c1` [MW05, (3-Amino-7-methoxypyrazolo[3,4-b]quinolin-1-yl)-[3-(dimethylamino)phenyl]methanone]: the inhibition at 1 µM is 7% in experiment [1]; -3% in experiment [2]; 8% in experiment [3]; 4% in experiment [4]; -3% in experiment [5]. Also, the inhibition at 10 µM in experiment [1] is -5%; in experiment [2], 2%; in experiment [3], 6%; in experiment [4] it was 10%; in experiment [5], 5%.
